Test results taken from PMC5958064, “Single cell analysis of kynurenine and System L amino acid transport in T cells” (Nature Communications, 2018).

Experiments:
AHR [1] = test: Cyp1a1 mRNA induction in TH17cond CD4+ T cells (qPCR); type: cell-based, mouse
Description: To activate primary T cells, spleens and/or lymph nodes (LN) were removed, disaggregated and red blood cells lysed. Cells were stimulated with 1 μg/ml of the CD3 monoclonal antibody (2C11) and 2 μg/ml anti-CD28 (37.51; ebiosciences) to trigger the TCR. Naive CD4^+ T cells and 24 h TCR-activated CD4^+ T cells were purified using CD4 isolation kit (EasySep, STEMCELL Technologies). […] Proleukin, Novartis) for a further 3–5 days. To generate TH1s and TH17s, murine CD8^+ T cells were depleted from lymph node preparations using CD8 depletion kit (EasySep, STEMCELL Technologies). […] RnD Systems) and IL-2 (20 ng/ml) and for TH17s; cytokines IL-6 (50 ng/ml, Peprotech), IL-1β (10 ng/ml, Peprotech) and TGFβ (2 ng/ml, Peprotech). TH17s were cultured in IMDM (Gibco). All other cells were cultured in RPMI 1640 containing L-glutamine (Gibco). Culture media was supplemented with 10% FBS (Gibco), 50 μM β-mercaptoethanol (β-ME, Sigma) and penicillin/streptomycin (Gibco). Cells were incubated at 37 °C with 5% CO2 throughout. […] RNA was purified using the RNeasy RNA purification Mini Kit (Qiagen) (Genomic DNA was digested with RNase-free DNase (Qiagen) following manufacturer instructions) and reverse-transcribed using the iScript cDNA synthesis kit (BioRad). Quantitative PCR was performed in 96-well plate format using iQ SYBR Green-based detection (BioRad) on a BioRad iCycler.

AHR [2] = system: AHR; set-up: method as in PMID 25657351, PMID 29279331; details: cited from earlier work
[3] = target: T1, System L transporter SLC7A5 (Mus musculus, UniProt Q9Z127); test: Radiolabelled 3H-kynurenine uptake in T cells; type: cell-based; details: compared with kynurenine Km ~200 μM
T1 construct: endogenous in cells
Description: To activate primary T cells, spleens and/or lymph nodes (LN) were removed, disaggregated and red blood cells lysed. Cells were stimulated with 1 μg/ml of the CD3 monoclonal antibody (2C11) and 2 μg/ml anti-CD28 (37.51; ebiosciences) to trigger the TCR. Naive CD4^+ T cells and 24 h TCR-activated CD4^+ T cells were purified using CD4 isolation kit (EasySep, STEMCELL Technologies). […] Proleukin, Novartis) for a further 3-5 days. To generate TH1s and TH17s, murine CD8^+ T cells were depleted from lymph node preparations using CD8 depletion kit (EasySep, STEMCELL Technologies). […] RnD Systems) and IL-2 (20 ng/ml) and for TH17s; cytokines IL-6 (50 ng/ml, Peprotech), IL-1β (10 ng/ml, Peprotech) and TGFβ (2 ng/ml, Peprotech). TH17s were cultured in IMDM (Gibco). All other cells were cultured in RPMI 1640 containing L-glutamine (Gibco). Culture media was supplemented with 10% FBS (Gibco), 50 μM β-mercaptoethanol (β-ME, Sigma) and penicillin/streptomycin (Gibco). Cells were incubated at 37 °C with 5% CO2 throughout. […] Cells were pelleted below the oil, the aqueous supernatant solution, followed by the silicon oil/dibutyl phthalate mixture was aspirated, and the cell pellet underneath resuspended in 200 μl NaOH (0.5 M) and β-radioactivity measured by liquid scintillation counting in a Beckman LS 6500 Multi-Purpose Scintillation Counter (Beckman Coulter). […] Where indicated, the sodium free buffer was prepared using TMACl as described in Baird et al.[35] Data are expressed as molecules radiotracer per cell per minute. […] All other chemicals were obtained from Sigma.

[4] = target: T1, System L transporter SLC7A5; test: Flow cytometry kynurenine uptake assay (450 nm fluorescence) in T cells; type: cell-based; details: for IC50: 37 °C; for IC50 / effect on kynurenine transport (450 nm fluorescence): 4 min; for effect on kynurenine transport ex vivo: D7 rLM-infected CD8+ T cells; for effect on kynurenine transport ex vivo / effect on kynurenine transport (450 nm fluorescence): BCH 10 mM, Leu 5 mM, Lys 5 mM; for effect on kynurenine transport (450 nm fluorescence): TCR-stimulated CD8+ T cells or CTLs
Description: For cell surface staining, antibodies conjugated to FITC, PE, APC, Alexafluor 647 (A647), APC-efluor780 (APCe780), and PerCPCy5.5 were obtained from either BD Pharmingen, eBioscience or Biolegend. Fc receptors were blocked using Fc Block (BD Pharmingen). Antibody clones used were: CD4 (RM4-5), CD8a (53-6.7), TCRβ (H57-597), CD44 (IM7), CD45.1 (A20), CD45.2 (104) and CD98 (RC388). Cells were fixed using 1% paraformaldehyde. Standard intracellular cytokine staining protocols were followed for IFNγ (clone XMG1.2; Biolegend) staining. Data were acquired on a LSR Fortessa II with DIVA software or a FACSVerse flow cytometer with FACSuite software (BD Biosciences) and analysed using FlowJo software version 9.9.5 (TreeStar).
Start with at least 1 × 10^6 cells per condition, to obtain at least 200,000 events analysed by flow cytometry at the end of the protocol. […] If required, surface cell antibody staining should be performed prior to uptake assay protocol. This may be performed at room temperature or 4 °C, however test samples must be warmed to 37 °C, e.g. in water bath, prior to kynurenine uptake. (As with all multi-parameter flow cytometry, appropriate antibody staining controls must also be performed.) Samples can be fixed immediately after uptake assay by addition of 4% (vol/vol) paraformaldehyde (PFA; to a final concentration of 1%) for 30 min at room temperature.
For kynurenine uptake assay; pre-warm kynurenine (800 μM, in HBSS), BCH (40 mM, in HBSS) and lysine (20 mM, HBSS) and HBSS to 37 °C. After surface antibody staining of samples, resuspend cells in 200 μl warmed HBSS (1–5 × 10^6 cells in FACS tubes, or scale accordingly into plates). Keep cells in water bath at 37 °C. Add 100 μl of HBSS, or BCH or lysine to appropriate samples. Add 100 μl HBSS to no kynurenine controls (final volume 400 μl). Finally, add 100 μl kynurenine to appropriate samples. Stop uptake after 4 min by adding 125 μl 4% PFA for 30 min at room temperature, in the dark. The final concentrations for uptake assay are: 200 μM kynurenine; +/-10 mM BCH; +/-5 mM lysine. After fixation, wash cells twice in PBS/0.5% BSA and resuspend in PBS/0.5% BSA prior to acquisition on flow cytometer. The 405 nm laser and 450/50 BP filter are used for kynurenine fluorescence detection.
To monitor kynurenine uptake in live cells, acquire data on flow cytometer immediately following addition of kynurenine and plot fluorescence against time.

mTORC1 = mTORC1 activity in CTLs after leucine removal and refeeding; type: cell-based, mouse; details: CTLs removed from leucine, refed leucine 100uM ± Kyn 100uM
Description: page 13: • We […] would not be able to measure the levels of in vivo ky nurenine uptake with this assay (for the reasons explained above). However, this is a pertinent question, and will relate to the total amount of available kynurenine compared to alternative System L substrates. The detailed micro-environmental metabolomics techniques required to perform this kind of analysis is beyond the scope of this paper, however we have tried to address this point in the discussion. Second, did CD4 T cells (Foxp3-) and Tregs (Foxp3+) from Lm-infected mice also i mport Ky n? […] This, also, is a very interesting aspect, however we feel that it is beyond the scope of this paper. Point 4: Data presented in Figures 4 & 5 show convincingly that SLC7A5 ablation in CD4 T cells abolishes Kyn uptake in CD4 T cells selectively and that imported Kyn triggers AhR signaling in CD4 T cells, respectively. However, no data is presented to address the biological significance of these findings, specifically regarding the reported ability of Kyn to suppress Th1 responses (e.g. IFNg production) or to reinforce Treg-mediated suppression of effector T cells via AhR signaling. […]

T1 sequence (Q9Z127 whole entry): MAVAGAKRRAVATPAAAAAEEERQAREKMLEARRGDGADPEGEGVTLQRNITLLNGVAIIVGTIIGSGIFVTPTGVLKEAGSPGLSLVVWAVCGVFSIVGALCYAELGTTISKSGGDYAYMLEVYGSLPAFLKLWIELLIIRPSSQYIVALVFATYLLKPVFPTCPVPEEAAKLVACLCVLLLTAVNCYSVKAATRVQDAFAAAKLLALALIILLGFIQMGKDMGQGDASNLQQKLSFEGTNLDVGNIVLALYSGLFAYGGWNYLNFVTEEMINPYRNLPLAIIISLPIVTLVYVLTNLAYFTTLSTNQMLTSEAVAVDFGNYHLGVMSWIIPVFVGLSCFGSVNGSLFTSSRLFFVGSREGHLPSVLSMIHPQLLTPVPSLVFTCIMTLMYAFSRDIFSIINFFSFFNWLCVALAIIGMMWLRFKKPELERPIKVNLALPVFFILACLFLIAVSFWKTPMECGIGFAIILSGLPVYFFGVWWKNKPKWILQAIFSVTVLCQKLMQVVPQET
T1 sequence (P10852 whole entry partner): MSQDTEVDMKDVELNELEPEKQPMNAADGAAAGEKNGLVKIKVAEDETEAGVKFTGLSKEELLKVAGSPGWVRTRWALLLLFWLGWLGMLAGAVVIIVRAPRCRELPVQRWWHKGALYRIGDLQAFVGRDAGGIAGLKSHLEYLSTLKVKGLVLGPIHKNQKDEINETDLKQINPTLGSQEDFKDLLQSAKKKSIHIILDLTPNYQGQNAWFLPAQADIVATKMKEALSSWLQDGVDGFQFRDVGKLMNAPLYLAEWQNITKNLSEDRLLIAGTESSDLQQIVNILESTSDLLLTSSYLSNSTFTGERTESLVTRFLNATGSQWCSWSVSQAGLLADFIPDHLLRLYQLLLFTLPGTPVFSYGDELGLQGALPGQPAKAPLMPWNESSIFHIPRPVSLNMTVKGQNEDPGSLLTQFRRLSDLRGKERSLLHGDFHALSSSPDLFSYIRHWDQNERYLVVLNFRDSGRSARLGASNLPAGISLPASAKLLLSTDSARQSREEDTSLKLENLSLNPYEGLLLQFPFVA

For Cc1ccccc1N=Nc1ccc(NC(=O)c2ccnn2C)c(C)c1 [CH223191], the “effect on kynurenine-induced Cyp1A1 mRNA” value (AHR [1]; D3 TH17cond cells, kynurenine 10 μM 2 h, CH223191 30 μM) was “completely blocked”.
In the case of O=Cc1c2[nH]c3ccccc3c2cc2[nH]c3ccccc3c12 [FICZ, 6-formylindolo[3,2-b]carbazole], the “concentrations needed to activate the AHR” value (AHR [2]) is given as “pM/nM range” and the “Cyp1a1 mRNA induction, D3 versus D5 post activation” value (AHR [1]; TH17cond CD4+ T cells, kynurenine 100 μM or FICZ 300 nM, 2 h) is given as “equivalent on D3 and D5”.
For Clc1cc2c(cc1Cl)Oc1cc(Cl)c(Cl)cc1O2 [TCDD, 2,3,7,8-tetrachlorodibenzo-p-dioxin], the “concentrations needed to activate the AHR” value (AHR [2]) is listed as “pM/nM range”.
With CC(C)C[C@H](N)C(=O)O [leucine] the “Km of other System L substrates relative to Km of kynurenine” value [3] was ~ 10 fold less, the IC50 ([4]; CTL) was 411 ± 30 µM and the IC50 ([4]; D7 rLM CD8+ effector T cells from spleen, ex vivo) was 168 ± 38 µM. For the same molecule, the “effect on kynurenine transport ex vivo” value [4] was “blocked”, the “effect on kynurenine transport (450 nm fluorescence)” value [4] was “blocks kynurenine transport to comparable levels as BCH” and the “effect on mTORC1 activity” value (mTORC1) was “establishes mTORC1 activity”.
In the case of NCCCC[C@H](N)C(=O)O [lysine], the “effect on kynurenine uptake” value ([4]; CD3/CD28 activated wild-type T cells in co-culture, 5 mM lysine, BCH) is reported as “did not inhibit kynurenine uptake”, the “effect on kynurenine transport ex vivo” value [4] is reported as “not by lysine competition” and the “effect on kynurenine transport (450 nm fluorescence)” value [4] is reported as “does not affect kynurenine transport”.
For CSCC[C@H](N)C(=O)O [methionine], the “Km of other System L substrates relative to Km of kynurenine” value [3] was ~ 10 fold less.
With N[C@@H](Cc1c[nH]c2ccccc12)C(=O)O [tryptophan] the “Km of other System L substrates relative to Km of kynurenine” value [3] was ~ 10 fold less.
